According to patent US8716317B2, “Sulfonamides with heterocycle and oxadiazolone headgroup, processes for their preparation and their use as pharmaceuticals” (Sanofi, priority 2008, dated 2014):
Like-named read-outs stand apart in the source and are kept apart here. One block for each compound: values may come before it.

Experiments:
human PPARdelta = target: T1, human PPARdelta (Homo sapiens, UniProt Q03181); experiment: Cellular PPARdelta assay (luciferase reporter, stably transfected HEK cell line); assay type: cell-based; details: GR-GAL4-humanPPARdelta-LBD
T1 construct: amino acids S139-Y441; expressed in transfected cells; host or cells: HEK (human embryo kidney) cells, stably transfected with a pcDNA3 construct
T1 sequence (Q03181 139-441): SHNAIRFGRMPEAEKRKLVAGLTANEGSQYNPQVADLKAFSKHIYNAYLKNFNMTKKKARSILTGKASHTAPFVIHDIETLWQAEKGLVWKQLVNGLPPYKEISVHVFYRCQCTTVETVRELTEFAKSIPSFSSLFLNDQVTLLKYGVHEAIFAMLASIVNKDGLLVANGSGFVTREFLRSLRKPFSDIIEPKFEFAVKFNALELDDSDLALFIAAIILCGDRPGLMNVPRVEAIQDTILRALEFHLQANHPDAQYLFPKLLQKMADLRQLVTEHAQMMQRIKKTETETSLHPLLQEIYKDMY
Procedure: (§1) The potency of substances which bind to human PPARdelta and activate it in an agonistic manner is analyzed using a stably transfected HEK cell line (HEK=human embryo kidney) which is referred to here as PPARdelta reporter cell line. In analogy to the assay described for PPARalpha, the PPARdelta reporter cell line also contains two genetic elements, a luciferase reporter element (pdeltaM-GAL4-Luc-Zeo) and a PPARdelta fusion protein (GR-GAL4-humanPPARdelta-LBD) which mediates expression of the luciferase reporter element depending on a PPARdelta ligand. The stably and constitutively expressed fusion protein GR-GAL4-humanPPARdelta-LBD binds in the cell nucleus of the PPARdelta reporter cell line via the GAL4 protein portion to the GAL4 DNA binding motifs 5″-upstream of the luciferase reporter element which is stably integrated in the genome of the cell line. There is only little expression of the luciferase reporter gene in the absence of a PPARdelta ligand if fatty acid-depleted fetal calf serum (cs-FCS) is used in the assay. PPARdelta ligands bind and activate the PPARdelta fusion protein and thereby stimulate expression of the luciferase reporter gene. The luciferase which is formed can be detected by means of chemiluminescence via an appropriate substrate.
The production of the stable PPARdelta reporter cell line is based on a stable HEK-cell clone which was stably transfected with a luciferase reporter element. This step was already described above in the section “construction of the PPARalpha reporter cell line”. […]
The activity of PPARdelta agonists is determined in a 3-day assay in exact analogy to the procedure already described for the PPARalpha reporter cell line except that the PPARdelta reporter cell line and a specific PPARdelta agonist was used as a standard to control test efficacy.

[1] = two weeks clinical trials in healthy volunteers; cited from earlier work
[2] = rhesus and cynomolgus monkeys; cited from earlier work
human PPARalpha = target: T2, human PPARalpha (Homo sapiens, UniProt Q07869); experiment: Cellular PPARalpha assay (luciferase reporter, stably transfected HEK cell line); assay type: cell-based; details: GR-GAL4-humanPPARalpha-LBD
T2 construct: amino acids S167-Y468; expressed in transfected cells; host or cells: HEK (human embryo kidney) cells, stably transfected with a pcDNA3 construct
T2 sequence (Q07869 167-468): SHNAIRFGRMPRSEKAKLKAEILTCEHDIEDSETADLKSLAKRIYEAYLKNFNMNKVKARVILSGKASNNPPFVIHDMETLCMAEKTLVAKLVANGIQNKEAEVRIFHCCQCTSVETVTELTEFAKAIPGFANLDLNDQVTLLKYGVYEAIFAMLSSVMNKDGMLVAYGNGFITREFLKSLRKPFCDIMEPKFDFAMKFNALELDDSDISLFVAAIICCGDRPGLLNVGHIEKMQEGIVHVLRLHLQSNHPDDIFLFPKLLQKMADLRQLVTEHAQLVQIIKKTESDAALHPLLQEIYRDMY
Procedure: as §1, with “PPARalpha” for “PPARdelta”, “It” for “In analogy to the assay described for PPARalpha, the PPARdelta reporter cell line also”, “(GR-GAL4-humanPPARalpha-LBD)” for “(GR-GAL4-humanPPARdelta-LBD)”, “GR-GAL4-humanPPARalpha-LBD” for “GR-GAL4-humanPPARdelta-LBD”, “weak” for “little”, “stimulate the” for “stimulate”
The PPARalpha reporter cell line was prepared in two stages. […]
The activity of PPARalpha agonists is determined in a 3-day assay which is described below: […]

[3] = diabetic animal model; cited from earlier work
[4] = obese, insulin resistant rhesus monkeys, cited from earlier work

- EC50 (human PPARdelta): 13 nM
SMILES: O=c1[nH]c(-c2ccc(S(=O)(=O)N3CCc4cc(-c5ccc(C(F)(F)F)cc5)ccc43)cn2)no1 [Example 3, 3-{5-[5-(4-Trifluoromethyl-phenyl)-2,3-dihydro-indole-1-sulfonyl]-pyridin-2-yl}-4H-[1,2,4]oxadiazol-5-one]

SMILES: CCCc1c(OCCCSc2nnc(SCC(=O)O)s2)ccc(C(C)=O)c1O [YM-16638]
- plasma lipids [1]: acts in a similar manner
- plasma lipids [2]: significantly lowers plasma lipids

- EC50 (human PPARdelta): 336 nM
- EC50 (human PPARalpha): 6.7 µM
SMILES: O=c1[nH]c(-c2ccc(S(=O)(=O)N3CCc4cc(-c5ccc(C(F)(F)F)cc5)ccc43)nc2)no1 [Example 2, 3-{6-[5-(4-Trifluoromethyl-phenyl)-2,3-dihydro-indole-1-sulfonyl]-pyridin-3-yl}-4H-[1,2,4]oxadiazol-5-one]

- EC50 (human PPARdelta): 21 nM
- EC50 (human PPARalpha): 0.92 µM
SMILES: O=c1[nH]c(-c2ccc(S(=O)(=O)N3CCc4cc(-c5ccc(C(F)(F)F)cc5)ccc43)s2)no1 [Example 1, 3-{5-[5-(4-Trifluoromethyl-phenyl)-2,3-dihydro-indole-1-sulfonyl]thiophen-2-yl}-4H-[1,2,4]oxadiazol-5-one]

SMILES: CCCc1c(OCCCOc2ccc(OCC(=O)O)cc2)ccc(C(C)=O)c1O [Example L-165041]
- plasma cholesterol [3]: raises plasma cholesterol

SMILES: Cc1cc(SCc2sc(-c3ccc(C(F)(F)F)cc3)nc2C)ccc1OCC(=O)O [GW501516]
- insulin levels ([4]; plasma): decreases
- triglycerides ([4]; plasma): decreases
- HDL-cholesterol [4]: raises
- plasma LDL-cholesterol [4]: decreases
